Experimental findings from patent US9233979B2, “Compounds that are ERK inhibitors” (Merck Sharp & Dohme Corp., priority 2012, dated 2016) are described below.

Chain of phosphorylated active hERK2 enzyme (P28482 whole entry): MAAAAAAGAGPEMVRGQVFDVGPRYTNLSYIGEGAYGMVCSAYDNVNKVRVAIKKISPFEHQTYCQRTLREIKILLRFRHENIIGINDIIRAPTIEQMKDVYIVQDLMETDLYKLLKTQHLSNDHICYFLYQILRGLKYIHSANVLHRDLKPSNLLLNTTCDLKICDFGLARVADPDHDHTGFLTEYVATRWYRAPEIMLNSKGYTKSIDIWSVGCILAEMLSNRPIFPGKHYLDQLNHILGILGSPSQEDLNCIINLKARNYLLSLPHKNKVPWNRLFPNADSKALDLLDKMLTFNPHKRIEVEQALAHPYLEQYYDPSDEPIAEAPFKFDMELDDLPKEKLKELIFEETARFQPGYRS

One assay deals with phosphorylated active hERK2 enzyme (Homo sapiens (Human), UniProt P28482). Kind of assay: Active Human ERK2 (hERK2) Activity Assay (IMAP-FP). As to conditions: Table 5, 0.5 nM hERK2, 30 μM ATP, 10 point titration, read-out: AERK2 IC50. It is filed as biochemical. The method, boiled down:
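IMAP detection beads in buffer with 24 mM NaCl stopped the reaction, and fluorescence polarization was read after 60 min binding.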
For the compound `CC(=O)Nc1n[nH]c2c(F)c(NC(=O)N[C@H](C)c3ccccc3)ncc12` [Example 58, (R)—N-(7-Fluoro-6-(3-(1-phenylethyl)ureido)-1H-pyrazolo[4,3-c]pyridin-3-yl)acetamide], the IC50 is 6.43 nM.
On to `C[C@@H](NC(=O)Nc1cc2[nH]nc(NS(C)(=O)=O)c2cn1)c1ccccc1` [Example 51, N-[6-({[(1R)-1-phenylethyl]carbamoyl}amino)-1H-pyrazolo[4,3-c]pyridin-3-yl]methanesulfonamide], for which the IC50 amounted to 652 nM.
In the case of `C[C@@H](NC(=O)Nc1ncc2c(N)n[nH]c2c1F)c1ccccc1` [Example 59, (R)-1-(3-Amino-7-fluoro-1H-pyrazolo[4,3-c]pyridin-6-yl)-3-(1-phenylethyl)urea], the half-inhibitory concentration (IC50) turned out to be 6.47 nM.

Staying with this assay, now noted: Table 6, 0.5 nM hERK2, 30 μM ATP, 10 point titration, read-out: AERK2 IC50.
In the case of `CC[C@@H](NC(=O)Nc1cc2[nH]nc(N3CCCC3)c2cn1)c1ccccn1` [Example 344, 1-[(1R)-1-pyridin-2-ylpropyl]-3-(3-pyrrolidin-1-yl-1H-pyrazolo[4,3-c]-pyridin-6-yl)urea], the 50% inhibitory concentration (IC50) is 1020 nM.
Regarding `CC(C)Nc1n[nH]c2cc(NC(=O)N[C@H](C)c3ccccc3)ncc12` [Example 325, 1-{3-[(1-methyl-ethyl)amino]-1H-pyrazolo[4,3-c]-pyridin-6-yl}-3-[(1R)-1-phenylethyl]urea], the IC50 was 1.5 nM.
Turning to `CCNc1n[nH]c2c(C(F)(F)F)c(NC(=O)N[C@H](C)c3ccccc3)ncc12` [Example 135, (R)-1-(3-(ethylamino)-7-(trifluoromethyl)-1H-pyrazolo[4,3-c]pyridin-6-yl)-3-(1-phenylethyl)urea], the IC50 was found to be 382 nM.
For the compound `COC(=O)Nc1n[nH]c2cc(NC(=O)N[C@H](C)c3ccccc3F)ncc12` [Example 305, methyl [6-({[(1R)-1-(2-fluorophenyl)-ethyl]carbamoyl}-amino)-1H-pyrazolo[4,3-c]-pyridin-3-yl]-carbamate], the IC50 was 7.3 nM.
Regarding `CC(NC(=O)Nc1cc2[nH]nc(N)c2cn1)c1ccc(F)c(F)c1` (stereo not drawn) [Example 275, 1-(3-amino-1H-pyrazolo[4,3-c]-pyridin-6-yl)-3-[1-(3,4-difluorophenyl)-ethyl]urea], the IC50 stood at 4.6 nM.
Take `COC1CC(CNc2n[nH]c3cc(NC(=O)N[C@H](C)c4ccccc4)ncc23)C1` (stereo partly drawn) [Example 170, 1-(3-{[(3-methoxy-cyclobutyl)methyl]amino}-1H-pyrazolo[4,3-c]-pyridin-6-yl)-3-[(1R)-1-phenylethyl]urea]: the IC50 turned out to be 2.7 nM.
Regarding `CC(=O)N(C)c1n[nH]c2cc(NC(=O)N[C@H](C)c3ccccc3)ncc12` [Example 349, N-methyl-N-[6-({[(1R)-1-phenyl-ethyl]carbamoyl}-amino)-1H-pyrazolo[4,3-c]-pyridin-3-yl]-acetamide], the IC50 came out at 484 nM.
For the compound `C[C@@H](NC(=O)Nc1cc2[nH]nc(NC(=O)CC3CCCC3)c2cn1)c1ccccc1` [Example 210, 2-cyclopentyl-N-[6-({[(1R)-1-phenylethyl]-carbamoyl}amino)-1H-pyrazolo[4,3-c]pyridin-3-yl]-acetamide], the IC50 was 2.8 nM.
`COC(=O)Nc1n[nH]c2cc(NC(=O)N[C@H](C)c3ccc(Cl)c(Cl)c3)ncc12` [Example 302, methyl [6-({[(1R)-1-(3,4-dichloro-phenyl)ethyl]-carbamoyl}amino)-1H-pyrazolo[4,3-c]pyridin-3-yl]-carbamate]: the IC50 came to 0.7 nM.
Still for that read-out and setting: for `C[C@@H](NC(=O)Nc1cc2[nH]nc(NC(=O)OCCO)c2cn1)c1ccc(F)cc1` [Example 404, 2-hydroxyethyl [6-({[(1R)-1-(4-fluorophenyl)ethyl]carbamoyl}amino)-1H-pyrazolo[4,3-c]pyridin-3-yl]-carbamate] the value was 5.3 nM.
Regarding `C[C@@H](NC(=O)Nc1cc2[nH]nc(N3CCC(C#N)CC3)c2cn1)c1ccccc1` [Example 423, 1-[3-(4-cyanopiperidin-1-yl)-1H-pyrazolo[4,3-c]-pyridin-6-yl]-3-[(1R)-1-phenylethyl]urea], the half-maximal inhibitory concentration (IC50) was 9.7 nM.
In the case of `C[C@H](O)[C@@H](NC(=O)Nc1cc2[nH]nc(N3CCc4ncsc4C3)c2cn1)c1ccccc1` [Example 388, 1-[3-(6,7-dihydro[1,3]-thiazolo[5,4-c]pyridin-5(4H)-yl)-1H-pyrazolo[4,3-c]-pyridin-6-yl]-3-[(1S,2S)-2-hydroxy-1-phenylpropyl]urea], the IC50 was determined as 34.6 nM.
The same measure, in the same setting: for `CCNc1n[nH]c2cc(NC(=O)N[C@H](CSC)c3ccccc3)ncc12` [Example 358, 1-[3-(ethylamino)-1H-pyrazolo[4,3-c]pyridin-6-yl]-3-[(1S)-2-(methylsulfanyl)-1-phenylethyl]urea] the value was 0.8 nM; for `C[C@@H](NC(=O)Nc1cc2[nH]nc(NC(=O)OC3CCOCC3)c2cn1)c1ccc(F)cc1` [Example 399, tetrahydro-2H-pyran-4-yl [6-({[(1R)-1-(4-fluorophenyl)ethyl]carbamoyl}amino)-1H-pyrazolo[4,3-c]pyridin-3-yl]-carbamate], 19.7 nM.
Same read-out and setting: the result for `COC(=O)Nc1n[nH]c2cc(NC(=O)N[C@H](C)c3ccc(F)c(Cl)c3)ncc12` [Example 300, methyl [6-({[(1R)-1-(3-chloro-4-fluorophenyl)ethyl]carbamoyl}amino)-1H-pyrazolo[4,3-c]pyridin-3-yl]-carbamate] reads 2.9 nM.
Still for that read-out and setting: the result for `COC[C@@H](NC(=O)Nc1cc2[nH]nc(NC3CCOCC3)c2cn1)c1ccccc1` [Example 328, 1-[(1S)-2-methoxy-1-phenylethyl]-3-[3-(tetrahydro-2H-pyran-4-ylamino)-1H-pyrazolo[4,3-c]pyridin-6-yl]urea] reads 0.8 nM; that for `CC(C)OC(=O)Nc1n[nH]c2cc(NC(=O)N[C@H](C)c3ccc(F)cc3)ncc12` [Example 398, 1-methylethyl [6-({[(1R)-1-(4-fluorophenyl)ethyl]carbamoyl}amino)-1H-pyrazolo[4,3-c]pyridin-3-yl]-carbamate], 52.5 nM.
For the compound `COC[C@@H](NC(=O)Nc1cc2[nH]nc(NC3CCC3)c2cn1)c1ccccc1` [Example 346, 1-[3-(cyclobutyl-amino)-1H-pyrazolo[4,3-c]-pyridin-6-yl]-3-[(1S)-2-methoxy-1-phenylethyl]urea], the IC50 came out at 0.4 nM.
With `CCNc1n[nH]c2cc(NC(=O)N[C@@H]3CCOc4ccccc43)ncc12` [Example 234, 1-[(4R)-3,4-dihydro-2H-chromen-4-yl]-3-[3-(ethylamino)-1H-pyrazolo[4,3-c]pyridin-6-yl]urea], the IC50 worked out at 52 nM.
The same measure, in the same setting: the result for `CCNc1n[nH]c2cc(NC(=O)N[C@H](C)c3ccccc3)nc(C)c12` [Example 331, (R)-1-(3-(ethylamino)-4-methyl-1H-pyrazolo[4,3-c]pyridin-6-yl)-3-(1-phenylethyl)urea] reads 2.9 nM; that for `COC[C@@H](NC(=O)Nc1cc2[nH]nc(NCC3CC(C(C)(C)O)C3)c2cn1)c1ccccc1` (stereo partly drawn) [Example 182, 1-[3-({[3-(1-hydroxy-1-methylethyl)-cyclobutyl]methyl}amino)-1H-pyrazolo[4,3-c]pyridin-6-yl]-3-[(1S)-2-methoxy-1-phenylethyl]urea], 2.6 nM; that for `COC[C@@H](NC(=O)Nc1cc2[nH]nc(NC(C)C(F)(F)F)c2cn1)c1ccccc1` (stereo partly drawn) [Example 421, 1-[(1S)-2-methoxy-1-phenylethyl]-3-{3-[(2,2,2-trifluoro-1-methylethyl)-amino]-1H-pyrazolo[4,3-c]-pyridin-6-yl}urea], 0.6 nM.
Regarding `C[C@@H](NC(=O)Nc1cc2[nH]nc(NC(=O)C3CCOCC3)c2cn1)c1ccccc1` [Example 181, N-[6-({[(1R)-1-phenylethyl]-carbamoyl}amino)-1H-pyrazolo[4,3-c]pyridin-3-yl]-tetrahydro-2H-pyran-4-carboxamide], the half-maximal inhibitory concentration (IC50) stood at 4.3 nM.
Regarding `COC[C@@H](NC(=O)Nc1cc2[nH]nc(NCC3CC(C(C)(C)O)C3)c2cn1)c1ccccc1` (stereo partly drawn) [Example 183, 1-[3-({[3-(1-hydroxy-1-methylethyl)-cyclobutyl]methyl}amino)-1H-pyrazolo[4,3-c]pyridin-6-yl]-3-[(1S)-2-methoxy-1-phenylethyl]urea], the IC50 came to 3.6 nM.
`CCNc1n[nH]c2cc(NC(=O)N[C@@H](c3ccccc3)C3(O)CCCC3)ncc12` [Example 236, 1-[3-(ethylamino)-1H-pyrazolo[4,3-c]pyridin-6-yl]-3-[(S)-(1-hydroxy-cyclopentyl)-(phenyl)methyl]-urea]: the half-maximal inhibitory concentration (IC50) stood at 0.7 nM.
With `C[C@@H](NC(=O)Nc1cc2[nH]nc(NC(=O)OCc3ccccc3)c2cn1)c1ccccc1` [Example 225, benzyl [6-({[(1R)-1-phenylethyl]-carbamoyl}amino)-1H-pyrazolo[4,3-c]pyridin-3-yl]-carbamate], the IC50 is 39.8 nM.
For `O=C(Nc1cc2[nH]nc(Nc3ccccc3Cl)c2cn1)N[C@@H]1CCCOc2ccccc21` [Example 119, 1-{3-[(2-chlorophenyl)-amino]-1H-pyrazolo[4,3-c]pyridin-6-yl}-3-[(5R)-2,3,4,5-tetrahydro-1-benzoxepin-5-yl]urea], the IC50 is 60.1 nM.
On to `C[C@@H](O)[C@@H](NC(=O)Nc1cc2[nH]nc(N3CCc4nn(C)cc4C3)c2cn1)c1ccccc1` [Example 393, 1-[(1S,2R)-2-hydroxy-1-phenylpropyl]-3-(2′-methyl-2′,4′,6′,7′-tetrahydro-1H-3,5′-bipyrazolo[4,3-c]-pyridin-6-yl)urea], for which the IC50 is 0.4 nM.
On the same count and under the same terms, for `Cc1nnsc1C(=O)Nc1n[nH]c2cc(NC(=O)N[C@H](C)c3ccccc3)ncc12` [Example 200, 4-methyl-N-[6-({[(1R)-1-phenylethyl]-carbamoyl}amino)-1H-pyrazolo[4,3-c]pyridin-3-yl]-1,2,3-thiadiazole-5-carboxamide] the value was 1.1 nM.
The same measure, in the same setting: for `CC(Nc1n[nH]c2cc(NC(=O)N[C@H](C)c3ccccc3)ncc12)C(F)(F)F` (stereo partly drawn) [Example 419, 1-[(1R)-1-phenylethyl]-3-{3-[(2,2,2-trifluoro-1-methylethyl)amino]-1H-pyrazolo[4,3-c]pyridin-6-yl}urea] the value was 2.2 nM.
